Like-named read-outs stand apart in the source and are kept apart here.
Legend:
Assay in all cases: microbe, parasite or virus in culture
Type in all cases: cell-based
C. freundii = details: Citrobacter freundii
Text: (§1) The antibacterial activity of cefepime-taniborbactam was compared to that of ceftazidime-avibactam, ceftolozane-tazobactam, and cefepime-tazobactam against a diverse panel of Enterobacterales and P. aeruginosa clinical isolates with defined β-lactamase subtypes (see Table S1 in the supplemental material). IMP-producing strains were excluded, as none of the BLI-protected cephalosporins inhibited IMP sufficiently to provide a clinically relevant rescue of the partner β-lactam, a characteristic also shared by approved BLI-protected carbapenems (meropenem-vaborbactam and imipenem-relebactam). […] The antibacterial activity of the cephalosporins alone was included to ascertain the level of potentiation by the partnered BLI. BLIs were tested at a fixed concentration of 4 μg/ml in all combinations except cefepime-tazobactam, where tazobactam was fixed at a concentration of 8 μg/ml ([38]). The collection comprised 143 clinical isolates collected from 2005 and 2018.
(§2) The in vitro antibacterial activity of the β-lactams alone or in combination with the BLIs was determined in cation-adjusted Mueller-Hinton broth (CAMHB) microdilution assays according to CLSI recommendations ([51]). […]. The inocula for the broth microdilution assays were prepared by the broth culture method ([51]). […]

E. coli = test system: E. coli
Text: as §1, §2

K. aerogenes = details: Klebsiella aerogenes
Text: as §1, §2

K. oxytoca = details: Klebsiella oxytoca
Text: as §1, §2

K. pneumoniae = test system: K. pneumoniae
Text: as §1, §2

## CC(C)(O/N=C(\C(=O)N[C@@H]1C(=O)N2C(C(=O)[O-])=C(C[n+]3ccccc3)CS[C@H]12)c1csc(N)n1)C(=O)O [CAZ]
C. freundii; strain 134390, AmpC/TEM-1
  MIC: 16 µg/mL
C. freundii; strain 241181, AmpC/TEM-163
  MIC: 8 µg/mL
E. coli
  MIC: 64 µg/mL
E. coli; Escherichia coli, strain 469, AmpC/SHV-12/TEM-1, read-out: MIC
  MIC: 64 µg/mL
E. coli; Escherichia coli, strain 1924, TEM-12, read-out: MIC
  MIC: 32 µg/mL
E. coli; Escherichia coli, strain 664507, OXA-48, read-out: MIC
  MIC: 64 µg/mL
E. coli; Escherichia coli, strain 664516, OXA-48, read-out: MIC
  MIC: 64 µg/mL
E. coli; Escherichia coli, strain 664520, OXA-48, read-out: MIC
  MIC: 64 µg/mL
E. coli; Escherichia coli, strain 664522, OXA-48, read-out: MIC
  MIC: 64 µg/mL
E. coli; Escherichia coli, strain 664523, OXA-48, read-out: MIC
  MIC: 64 µg/mL
E. coli; Escherichia coli, strain 873435, CTX-M-15, read-out: MIC
  MIC: 128 µg/mL
E. coli; Escherichia coli, strain 875627, CTX-M-27, read-out: MIC
  MIC: 8 µg/mL
E. coli; Escherichia coli, strain 878358, TEM-1/CTX-M, read-out: MIC
  MIC: 32 µg/mL
E. coli; Escherichia coli, strain 890500, TEM-1/CTX-M-14, read-out: MIC
  MIC: 4 µg/mL
E. coli; Escherichia coli, strain 1275635, VIM-23, read-out: MIC
  MIC: 128 µg/mL
E. coli; Escherichia coli, strain 1459453, NDM-7, read-out: MIC
  MIC: ≥ 256 µg/mL
E. coli; Escherichia coli, strain CDC-0069, NDM, read-out: MIC
  MIC: ≥ 256 µg/mL
E. coli; Escherichia coli, strain CDC-0149, NDM, read-out: MIC
  MIC: ≥ 256 µg/mL
E. coli; Escherichia coli, strain EC1552 2A, AmpC/CMY-2/TEM-1, CTX-M-15, read-out: MIC
  MIC: 64 µg/mL
E. coli; Escherichia coli, strain ESBL 5, CTX-M-15/TEM-1, read-out: MIC
  MIC: 128 µg/mL
E. coli; Escherichia coli, strain SI-LP377, CTX-M-2, read-out: MIC
  MIC: 8 µg/mL
E. coli; Escherichia coli, strain SI-M004, SHV-2/GES-12, read-out: MIC
  MIC: ≥ 256 µg/mL
E. coli; Escherichia coli, strain SI-PO26, AmpC/CMY-2/TEM-1, read-out: MIC
  MIC: 64 µg/mL
E. coli; Escherichia coli, strain SI-V502, TEM-29/CTX-M-15, read-out: MIC
  MIC: 32 µg/mL
E. coli; Escherichia coli, strain VER, OXA-48, read-out: MIC
  MIC: 0.5 µg/mL
K. aerogenes; strain 73546, AmpC
  MIC: 32 µg/mL
K. aerogenes; strain 110099, AmpC/SHV-12
  MIC: 128 µg/mL
K. aerogenes; strain 111707, AmpC/TEM-1
  MIC: 32 µg/mL
K. oxytoca
  MIC: ≥ 256 µg/mL
K. oxytoca; strain 134943, CMY-2/TEM-1, read-out: MIC
  MIC: 128 µg/mL
K. pneumoniae
  MIC: 64 µg/mL
K. pneumoniae; Klebsiella pneumoniae, strain 6299, OXA-163, read-out: MIC
  MIC: 128 µg/mL
K. pneumoniae; Klebsiella pneumoniae, strain 178279, SHV-12/TEM-1/AmpC, read-out: MIC
  MIC: 128 µg/mL
K. pneumoniae; Klebsiella pneumoniae, strain 196477, AmpC, read-out: MIC
  MIC: ≥ 256 µg/mL
K. pneumoniae; Klebsiella pneumoniae, strain 212027, AmpC/FOX-5/TEM-1, read-out: MIC
  MIC: 128 µg/mL
K. pneumoniae; Klebsiella pneumoniae, strain 515746, OXA-48, read-out: MIC
  MIC: 64 µg/mL
K. pneumoniae; Klebsiella pneumoniae, strain 664438, OXA-48, read-out: MIC
  MIC: 128 µg/mL
K. pneumoniae; Klebsiella pneumoniae, strain 664439, OXA-48, read-out: MIC
  MIC: 128 µg/mL
K. pneumoniae; Klebsiella pneumoniae, strain 722870, OXA-48, read-out: MIC
  MIC: 64 µg/mL
K. pneumoniae; Klebsiella pneumoniae, strain 752334, OXA-48, read-out: MIC
  MIC: 128 µg/mL
K. pneumoniae; Klebsiella pneumoniae, strain 769972, OXA-48, read-out: MIC
  MIC: 64 µg/mL
K. pneumoniae; Klebsiella pneumoniae, strain 787422, OXA-48, read-out: MIC
  MIC: 8 µg/mL
K. pneumoniae; Klebsiella pneumoniae, strain 856819, SHV-11/VIM-1, read-out: MIC
  MIC: ≥ 256 µg/mL
K. pneumoniae; Klebsiella pneumoniae, strain 873460, SHV-30/CTX-M-15, read-out: MIC
  MIC: 64 µg/mL
K. pneumoniae; Klebsiella pneumoniae, strain 874328, SHV-11/CTX-M-15/NDM-1, read-out: MIC
  MIC: ≥ 256 µg/mL
K. pneumoniae; Klebsiella pneumoniae, strain 882956, SHV-31/DHA-1/VIM-1, read-out: MIC
  MIC: ≥ 256 µg/mL
K. pneumoniae; Klebsiella pneumoniae, strain 890066, SHV-33/TEM-33/CTX-M-15/IMP-1, read-out: MIC
  MIC: ≥ 256 µg/mL
K. pneumoniae; Klebsiella pneumoniae, strain 892694, SHV-12/TEM-1/CTX-M-15/OXA-48/ACT, read-out: MIC
  MIC: ≥ 256 µg/mL
K. pneumoniae; Klebsiella pneumoniae, strain 919877, SHV-OSBL/VIM-1, read-out: MIC
  MIC: ≥ 256 µg/mL
K. pneumoniae; Klebsiella pneumoniae, strain 1104864, SHV-OSBL(b)/VIM-1, read-out: MIC
  MIC: ≥ 256 µg/mL
K. pneumoniae; Klebsiella pneumoniae, strain 1104866, SHV-OSBL(b)/VIM-1, read-out: MIC
  MIC: ≥ 256 µg/mL
K. pneumoniae; Klebsiella pneumoniae, strain 1280442, SHV-OSBL(b)/VIM-1, read-out: MIC
  MIC: ≥ 256 µg/mL
K. pneumoniae; Klebsiella pneumoniae, strain CDC-0049, NDM, read-out: MIC
  MIC: ≥ 256 µg/mL
K. pneumoniae; Klebsiella pneumoniae, strain CDC-0139, NDM-1, read-out: MIC
  MIC: ≥ 256 µg/mL
